Source: US20240368156A1, “2-AZABICYCLO[2.2.1]HEPTANE KRAS INHIBITORS” (INCYTE CORPORATION, priority 2023, published 2024)

Legend:
KRAS G12D = KRAS G12D (Homo sapiens, UniProt P01116, G12D); assay: GDP-GTP exchange assay (bodipy-GDP/GppNHp, SOS1), KRAS G12D; format: biochemical; conditions: 2.5 nM bodipy-loaded KRAS G12D, 4 h pre-incubation, 2 h reaction with GppNHp and SOS1; for certain compounds the most potent isomer is quoted; read-out: KRAS_G12D exchange assay IC50
Method: (§1) The inhibitor potency of the exemplified compounds was determined in a fluorescence based guanine nucleotide exchange assay, which measures the exchange of bodipy-GDP (fluorescently labeled GDP) for GppNHp (Non-hydrolyzable GTP analog) to generate the active state of KRAS in the presence of SOS1 (guanine nucleotide exchange factor). Inhibitors were serially diluted in DMSO and a volume of 0.1 μL was transferred to the wells of a black low volume 384-well plate. 5 µL/well volume of bodipy-loaded KRAS G12D diluted to 2.5 nM in assay buffer (25 mM Hepes pH 7.5, 50 mM NaCl, 10 mM MgCl2 and 0.01% Brij-35) was added to the plate and pre-incubated with inhibitor for 4 h at r.t. Appropriate controls (enzyme with no inhibitor or with a G12D inhibitor) were included on the plate. The exchange was initiated by the addition of a 5 μL/well volume containing 1 mM GppNHp and 300 nM SOS1 in assay buffer. The 10 μL/well reaction concentration of the bodipy-loaded KRAS G12D, GppNHp, and SOS1 were 2.5 nM, 500 μM, and 150 nM, respectively. The reaction plates were incubated at r.t. for 2 h, a time estimated for complete GDP-GTP exchange in the absence of inhibitor. For the KRAS G12V mutant, similar guanine nucleotide exchange assays were used with 2.5 nM as final concentration for the bodipy loaded KRAS proteins and 3 h incubation after adding GppNHp-SOS1 mixture. A cyclic peptide described to selectively bind G12D mutant (Sakamoto et al., BBRC 484.3 (2017), 605-611) or internal compounds with confirmed binding were used as positive controls in the assay plates. Fluorescence intensities were measured on a PheraStar plate reader instrument (BMG Labtech) with excitation at 485 nm and emission at 520 nm.
(§2) Either GraphPad prism or Genedata Screener SmartFit was used to analyze the data. The IC50 values were derived by fitting the data to a four parameter logistic equation producing a sigmoidal dose-response curve with a variable Hill coefficient.
(§3) The symbol “†” indicates IC50≤100 nM, “††” indicates IC50>100 nM but ≤1 μM; and “†††” indicates IC50 is >1 μM but ≤5 μM, “††††” indicates IC50 is >5 µM but ≤10 μM. “NA” indicates IC50 not available.

KRAS G12V = KRAS G12V (Homo sapiens, UniProt P01116, G12V); assay: GDP-GTP exchange assay (bodipy-GDP/GppNHp, SOS1), KRAS G12V; format: biochemical; conditions: 2.5 nM bodipy-loaded KRAS G12V, 3 h incubation after adding GppNHp-SOS1; for certain compounds the most potent isomer is quoted; read-out: KRAS_G12V exchange assay IC50
Chain of KRAS G12V (P01116 1-188 isoform P01116-2 G12V): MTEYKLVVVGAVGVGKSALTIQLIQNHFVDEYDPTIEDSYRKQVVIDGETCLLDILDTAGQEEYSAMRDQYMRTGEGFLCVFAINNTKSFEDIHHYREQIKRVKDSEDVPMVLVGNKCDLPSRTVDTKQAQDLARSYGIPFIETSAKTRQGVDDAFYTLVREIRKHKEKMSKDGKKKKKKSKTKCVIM
Method: as §1, §2, §3

Chain of KRAS G12D (P01116 1-188 isoform P01116-2 G12D): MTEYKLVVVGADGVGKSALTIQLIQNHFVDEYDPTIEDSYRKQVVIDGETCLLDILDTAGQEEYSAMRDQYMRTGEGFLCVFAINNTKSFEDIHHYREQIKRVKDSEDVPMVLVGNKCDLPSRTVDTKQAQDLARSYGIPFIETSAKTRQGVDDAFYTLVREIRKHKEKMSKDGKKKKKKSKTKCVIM

| SMILES | IC50 (KRAS G12D) [nM] | IC50 (KRAS G12V) [nM] |
| --- | --- | --- |
| Cc1nc2c(F)c(-c3cccc(Cl)c3Cl)c(CCC#N)cc2c2c1cc([C@H]1[C@@H]3C[C@@H]([C@@H]4C[C@@H]43)N1C(=O)C1CC1)n2C1C2CNC1C2 (stereo partly drawn) [Example 26, 3-(1-(2-azabicyclo[2.1.1]hexan-5-yl)-2-((1R,2S,4R,5S,7R)-6-(cyclopropanecarbonyl)-6-azatricyclo[3.2.1.02,4]octan-7-yl)-7-(2,3-dichlorophenyl)-6-fluoro-4-methyl-1H-pyrrolo[3,2-c]quinolin-8-yl)propanenitrile] | 5000 to 10000 | 5000 to 10000 |
| C[C@@H](O)c1nc2c(F)c(-c3cccc(Cl)c3Cl)c(CCC#N)cc2c2c1cc([C@H]1[C@H]3C[C@H](C[C@@H]3OC3CC3)N1C(=O)C1(F)CC1)n2[C@H]1[C@H]2CN[C@@H]1C2 (single isomer, unassigned) [Example 38] | ≤ 100 | ≤ 100 |
| Cc1nc2c(F)c(-c3cccc(Cl)c3Cl)c(CCC#N)cc2c2c1cc([C@H]1[C@H]3C[C@H](C[C@H]3F)N1C(=O)C1CC1)n2C1[C@H]2CN[C@@H]1C2 (stereo partly drawn) [Example 17, 3-(1-((1R,4R)-2-azabicyclo[2.1.1]hexan-5-yl)-2-((1R,3R,4R,5R)-2-(cyclopropanecarbonyl)-5-fluoro-2-azabicyclo[2.2.1]heptan-3-yl)-7-(2,3-dichlorophenyl)-6-fluoro-4-methyl-1H-pyrrolo[3,2-c]quinolin-8-yl)propanenitrile] | ≤ 100 | ≤ 100 |
| COC(=O)N1[C@@H]2C[C@@H]([C@@H](OC(F)F)C2)[C@@H]1c1cc2c(C)nc3c(F)c(-c4cccc(Cl)c4Cl)c(CCC#N)cc3c2n1[C@H]1[C@H]2CN[C@@H]1C2 (atropisomer, axis not shown; (Ra)) [Example 39, Methyl (1R,3R,4R,5S)-3-((Ra)-1-((1R,4R,5S)-2-azabicyclo[2.1.1]hexan-5-yl)-8-(2-cyanoethyl)-7-(2,3-dichlorophenyl)-6-fluoro-4-methyl-1H-pyrrolo[3,2-c]quinolin-2-yl)-5-(difluoromethoxy)-2-azabicyclo[2.2.1]heptane-2-carboxylate] | ≤ 100 | ≤ 100 |
| Cc1nc2c(F)c(-c3cccc(Cl)c3Cl)c(CCC#N)cc2c2c1cc([C@H]1[C@H]3C[C@H](C[C@@H]3Oc3cccnc3)N1C(=O)C1CC1)n2C1[C@H]2CN[C@@H]1C2 (stereo partly drawn) [Example 27, 3-(1-((1R,4R)-2-azabicyclo[2.1.1]hexan-5-yl)-2-((1R,3R,4R,5S)-2-(cyclopropanecarbonyl)-5-(pyridin-3-yloxy)-2-azabicyclo[2.2.1]heptan-3-yl)-7-(2,3-dichlorophenyl)-6-fluoro-4-methyl-1H-pyrrolo[3,2-c]quinolin-8-yl)propanenitrile] | ≤ 100 | ≤ 100 |
| Cc1nc2c(F)c(-c3cccc(Cl)c3Cl)c(CCC#N)cc2c2c1cc([C@H]1[C@H]3C[C@H](C[C@@H]3Oc3ccncc3)N1C(=O)C1CC1)n2[C@H]1[C@H]2CN[C@@H]1C2 (atropisomer, axis not shown) [Example 31, 3-((R)-1-((1R,4R,5S)-2-azabicyclo[2.1.1]hexan-5-yl)-2-((1R,3R,4R,5S)-2-(cyclopropanecarbonyl)-5-(pyridin-4-yloxy)-2-azabicyclo[2.2.1]heptan-3-yl)-7-(2,3-dichlorophenyl)-6-fluoro-4-methyl-1H-pyrrolo[3,2-c]quinolin-8-yl)propanenitrile] | ≤ 100 | ≤ 100 |

More lines, now with the values ahead:

| IC50 (KRAS G12D) [nM] | IC50 (KRAS G12V) [nM] | SMILES |
| --- | --- | --- |
| ≤ 100 | ≤ 100 | CN(C)C(=O)c1ccc(-c2nc3c(F)c(-c4cccc(Cl)c4Cl)c(CCC#N)cc3c3c2cc([C@H]2[C@@H]4CC[C@@H](C4)N2C(=O)C2CC2)n3[C@H]2[C@H]3CN[C@@H]2C3)cn1 [Example 12, 5-(1-((1R,4R,5S)-2-azabicyclo[2.1.1]hexan-5-yl)-8-(2-cyanoethyl)-2-((1S,3R,4R)-2-(cyclopropanecarbonyl)-2-azabicyclo[2.2.1]heptan-3-yl)-7-(2,3-dichlorophenyl)-6-fluoro-1H-pyrrolo[3,2-c]quinolin-4-yl)-N,N-dimethylpicolinamide] |
| ≤ 100 | ≤ 100 | Cc1nc2c(F)c(-c3cccc(Cl)c3Cl)c(CCC#N)cc2c2c1cc([C@H]1[C@H]3C[C@H](C[C@@H]3O)N1C(=O)C1CC1)n2C1[C@H]2CN[C@@H]1C2 (stereo partly drawn) [Example 16, 3-(1-((1R,4R)-2-azabicyclo[2.1.1]hexan-5-yl)-2-((1R,3R,4R,5S)-2-(cyclopropanecarbonyl)-5-hydroxy-2-azabicyclo[2.2.1]heptan-3-yl)-7-(2,3-dichlorophenyl)-6-fluoro-4-methyl-1H-pyrrolo[3,2-c]quinolin-8-yl)propanenitrile] |
| ≤ 100 | ≤ 100 | C[C@@H](O)c1nc2c(F)c(-c3cccc(Cl)c3Cl)c(CCC#N)cc2c2c1cc([C@H]1[C@H]3C[C@H](C[C@@H]3F)N1C(=O)C1(F)CC1)n2[C@H]1[C@H]2CN[C@@H]1C2 (atropisomer, axis not shown) [Example 32, 3-((R)-1-((1R,4R,5S)-2-azabicyclo[2.1.1]hexan-5-yl)-7-(2,3-dichlorophenyl)-6-fluoro-2-((1R,3R,4R,5S)-5-fluoro-2-(1-fluorocyclopropane-1-carbonyl)-2-azabicyclo[2.2.1]heptan-3-yl)-4-((R)-1-hydroxyethyl)-1H-pyrrolo[3,2-c]quinolin-8-yl)propanenitrile] |
| ≤ 100 | ≤ 100 | Cc1nc2c(F)c(-c3cccc(Cl)c3Cl)c(CCC#N)cc2c2c1cc([C@H]1[C@H]3C[C@H](C[C@@H]3OC(F)F)N1C(=O)C1(F)CC1)n2[C@H]1[C@H]2CN[C@@H]1C2 (atropisomer, axis not shown; (Ra)) [Example 10, 3-((Ra)-1-((1R,4R,5S)-2-Azabicyclo[2.1.1]hexan-5-yl)-7-(2,3-dichlorophenyl)-2-((1R,3R,4R,5S)-5-(difluoromethoxy)-2-(1-fluorocyclopropane-1-carbonyl)-2-azabicyclo[2.2.1]heptan-3-yl)-6-fluoro-4-methyl-1H-pyrrolo[3,2-c]quinolin-8-yl)propanenitrile] |
| ≤ 100 | ≤ 100 | Cc1nc2c(F)c(-c3cccc(Cl)c3Cl)c(CCC#N)cc2c2c1cc([C@H]1[C@H]3C[C@H](C[C@@H]3OC(F)(F)F)N1C(=O)C1(F)CC1)n2[C@H]1[C@H]2CN[C@@H]1C2 (atropisomer, axis not shown; (Ra)) [Example 42, 3-((Ra)-1-((1R,4R,5S)-2-azabicyclo[2.1.1]hexan-5-yl)-7-(2,3-dichlorophenyl)-6-fluoro-2-((1R,3R,4R,5S)-2-(1-fluorocyclopropane-1-carbonyl)-5-(trifluoromethoxy)-2-azabicyclo[2.2.1]heptan-3-yl)-4-methyl-1H-pyrrolo[3,2-c]quinolin-8-yl)propanenitrile] |
| ≤ 100 | ≤ 100 | CC(C)(O)c1ccc(-c2nc3c(F)c(-c4cccc(Cl)c4Cl)c(CCC#N)cc3c3c2cc([C@H]2[C@@H]4CC[C@@H](C4)N2C(=O)C2CC2)n3[C@H]2[C@H]3CN[C@@H]2C3)cn1 [Example 13, 3-(1-((1R,4R,5S)-2-azabicyclo[2.1.1]hexan-5-yl)-2-((1S,3R,4R)-2-(cyclopropanecarbonyl)-2-azabicyclo[2.2.1]heptan-3-yl)-7-(2,3-dichlorophenyl)-6-fluoro-4-(6-(2-hydroxypropan-2-yl)pyridin-3-yl)-1H-pyrrolo[3,2-c]quinolin-8-yl)propanenitrile] |
